Laboratory results as given in article PMC10454678, “Synthesis of hydroxy benzoin/benzil analogs and investigation of their antioxidant, antimicrobial, enzyme inhibition, and cytotoxic activities” (Turkish Journal of Chemistry, 2021).
≈ marks a conversion by molar mass, not a printed value. Like-named read-outs stand apart in the source and are kept apart here.

Tests used:
[1] = system: Escherichia coli ATCC 25922; assay: MIC, microdilution, E. coli; assay type: cell-based; conditions: Escherichia coli
[2] = system: Yersinia pseudotuberculosis ATCC911; assay: microbe, parasite or virus in culture; assay type: cell-based; conditions: Yersinia pseudotuberculosis, ATCC911, read-out: MIC Yp
[3] = system: Pseudomonas aeruginosa ATCC27853; assay: MIC, microdilution, P. aeruginosa; assay type: cell-based; conditions: Pseudomonas aeruginosa, ATCC27853; Gram (-); Mueller-Hinton broth, 18-24 h, 36 °C; read-out: MIC Pa
[4] = system: Staphylococcus aureus ATCC25923; assay: MIC, microdilution, S. aureus; assay type: cell-based; conditions: Staphylococcus aureus, ATCC25923; Gram (+); Mueller-Hinton broth, 18-24 h, 36 °C; read-out: MIC Sa
[5] = system: Enterococcus faecalis ATCC29212; assay: MIC, microdilution, E. faecalis; assay type: cell-based; conditions: Enterococcus faecalis, ATCC29212; Gram (+); Mueller-Hinton broth, 18-24 h, 36 °C; read-out: MIC Ef
[6] = DPPH radical scavenging activity; conditions: 0.1 mM DPPH, 50 min dark, 517 nm
Bacillus cereus Roma709 = assay: MIC, microdilution, B. cereus; assay type: cell-based; conditions: Bacillus cereus
[7] = system: Mycobacterium smegmatis ATCC607; assay: MIC, microdilution, M. smegmatis; assay type: cell-based; conditions: for MIC: Mycolicibacterium smegmatis, ATCC607, 72 h
[8] = system: Candida albicans ATCC60193; assay: MIC, microdilution, C. albicans; assay type: cell-based; conditions: Candida albicans, ATCC60193; fungus; YEPD broth, 48 h, 36 °C; read-out: MIC Ca
acetylcholinesterase = acetylcholinesterase (Homo sapiens, UniProt P22303); assay: biochemical; conditions: Tris-HCl pH 8.0, 25 °C, 405 nm; read-out: AChE IC50 (converted)
Chain of acetylcholinesterase (P22303 32-614, species assumed): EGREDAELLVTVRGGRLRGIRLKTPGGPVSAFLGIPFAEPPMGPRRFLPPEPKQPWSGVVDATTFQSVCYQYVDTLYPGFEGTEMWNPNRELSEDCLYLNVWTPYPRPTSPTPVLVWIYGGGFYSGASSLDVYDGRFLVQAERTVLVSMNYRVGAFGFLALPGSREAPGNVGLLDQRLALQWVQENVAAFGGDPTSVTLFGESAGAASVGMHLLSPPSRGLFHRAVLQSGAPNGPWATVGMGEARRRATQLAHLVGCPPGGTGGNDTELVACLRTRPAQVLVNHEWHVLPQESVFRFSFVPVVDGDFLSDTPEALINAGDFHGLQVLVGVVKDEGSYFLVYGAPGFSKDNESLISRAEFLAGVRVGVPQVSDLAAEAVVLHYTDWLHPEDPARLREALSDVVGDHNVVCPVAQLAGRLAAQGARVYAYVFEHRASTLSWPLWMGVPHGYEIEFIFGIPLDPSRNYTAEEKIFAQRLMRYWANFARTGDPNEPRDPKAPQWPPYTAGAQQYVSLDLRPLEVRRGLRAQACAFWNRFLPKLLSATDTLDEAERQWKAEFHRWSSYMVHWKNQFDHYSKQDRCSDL

butyrylcholinesterase = butyrylcholinesterase (Homo sapiens, UniProt P06276); assay: biochemical; conditions: Tris-HCl pH 8.0, 25 °C, 405 nm; read-out: BChE IC50 (converted)
Chain of butyrylcholinesterase (P06276 29-602): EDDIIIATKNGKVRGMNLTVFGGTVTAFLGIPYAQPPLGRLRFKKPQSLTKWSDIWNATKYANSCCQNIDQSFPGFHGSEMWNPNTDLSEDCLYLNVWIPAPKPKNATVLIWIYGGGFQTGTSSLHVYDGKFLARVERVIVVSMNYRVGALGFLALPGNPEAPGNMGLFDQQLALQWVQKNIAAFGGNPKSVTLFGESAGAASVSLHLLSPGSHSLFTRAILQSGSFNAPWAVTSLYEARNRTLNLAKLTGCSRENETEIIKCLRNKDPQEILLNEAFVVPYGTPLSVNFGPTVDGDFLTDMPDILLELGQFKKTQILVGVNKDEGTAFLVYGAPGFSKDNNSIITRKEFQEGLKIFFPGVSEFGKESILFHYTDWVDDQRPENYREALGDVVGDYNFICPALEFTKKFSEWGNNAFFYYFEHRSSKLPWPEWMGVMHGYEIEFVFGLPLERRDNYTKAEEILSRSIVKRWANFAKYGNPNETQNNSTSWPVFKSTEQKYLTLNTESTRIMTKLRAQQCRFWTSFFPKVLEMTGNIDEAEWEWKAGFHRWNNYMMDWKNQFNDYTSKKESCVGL

α-glucosidase = assay: α-Glucosidase inhibition; assay type: biochemical; conditions: PNPG, pH 6.8, 37 °C, 400 nm
Method: It was incubated at 37 °C for 15 min. Similarly, an enzyme-free blank was prepared. The reaction was stopped when sodium carbonate (50 μL, 0.2 M) was added.

[9] = Copper ions reducing activity (CUPRAC); conditions: Trolox equivalents; 30 min dark, room temperature, 450 nm
[10] = Ferric reducing antioxidant power (FRAP) assay; conditions: Trolox equivalents; compounds 2 mg/mL, 30 °C 30 min, 595 nm
[11] = ATCC25922, Gram (-), Mueller-Hinton broth, 18-24 h, 36 °C, read-out: MIC Ec
[12] = Tub., BHI broth, 36 °C, read-out: MIC Ms

SMILES	MIC [1, 11]	MIC [2]	MIC [3]	MIC [4]	MIC [5]	DPPH radical scavenging capacity (SC50) [6]	MIC (Bacillus cereus Roma709; ROMA709, read-out: MIC Bc)	MIC [7, 12]	MIC [8]	IC50 (acetylcholinesterase)	IC50 (butyrylcholinesterase)	α-Glucosidase IC50 (α-glucosidase)	CUPRAC, copper reducing antioxidant power [9]	FRAP, the iron reducing antioxidant power [10]	MIC (Bacillus cereus Roma709; ROMA709, Gram (+), Mueller-Hinton broth, 18-24 h, 36 °C, read-out: MIC Bc)	MIC Ms ([7]; Tub., BHI broth, 72 h, 36 °C)	MIC ([1]; ATCC25922, read-out: MIC Ec)	MIC ([7]; read-out: MIC Ms, Tub., BHI broth, 36 °C)
CC1(C)S[C@@H]2[C@H](NC(=O)[C@H](N)c3ccccc3)C(=O)N2[C@H]1C(=O)O [Amp., Ampicillin, reference compound]	10 µg/mL (≈ 28.6 µM)	18 µg/mL (≈ 51.5 µM)	> 128 µg/mL	35 µg/mL (≈ 100 µM)	10 µg/mL (≈ 28.6 µM)	–	–	–	–	–	–	–	–	–	–	–	–	–
Cc1cc(C(C)(C)C)c(O)c(C(C)(C)C)c1 [BHT, di-t-butylhydroxytoluene, reference compound]	–	–	–	–	–	6.47 ± 0.12 mg/mL	–	–	–	–	–	–	–	–	–	–	–	–
O=C(c1cccc(O)c1)C(O)c1ccccc1 (centres unmarked) [Compound 1, 2-Hydroxy-1-(3-hydroxyphenyl)-2-phenylethanone]	330 µg/mL (≈ 1450 µM)	1320 µg/mL (≈ 5780 µM)	–	–	–	15.21 ± 2.1 mg/mL	1320 µg/mL (≈ 5780 µM)	165 µg/mL (≈ 723 µM)	330 µg/mL (≈ 1450 µM)	> 4380 µM	1890 µM	58.16 µg/mL	738.33 ± 12.5 μg/mL trolox/gram DW	1238 ± 34.7 μg/mL trolox/gram DW	–	–	–	–
O=C(C(=O)c1cc(O)cc(O)c1)c1ccccc1 [Compound 10, 1-(3,5-Dihydroxyphenyl)-2-phenylethane-1,2-dione]	17 µg/mL (≈ 70.2 µM)	65 µg/mL (≈ 268 µM)	32 µg/mL (≈ 132 µM)	65 µg/mL (≈ 268 µM)	–	52.10 ± 0.4 mg/mL	–	9 to 18 µg/mL (≈ 37.2 to 74.3 µM)	17 µg/mL (≈ 70.2 µM)	161 µM	> 4130 µM	100.08 µg/mL	455.00 ± 10.1 μg/mL trolox/gram DW	1830 ± 44.8 μg/mL trolox/gram DW	17 µg/mL (≈ 70.2 µM)	17 µg/mL (≈ 70.2 µM)	–	–
O=C(C(=O)c1cc(O)cc(O)c1)c1cc(O)cc(O)c1 [Compound 14, 1,2-Bis(3,5-dihydroxyphenyl)ethane-1,2-dione]	–	102 µg/mL (≈ 372 µM)	51 µg/mL (≈ 186 µM)	–	51 µg/mL (≈ 186 µM)	7.38 ± 1.0 mg/mL	102 µg/mL (≈ 372 µM)	51 µg/mL (≈ 186 µM)	51 µg/mL (≈ 186 µM)	257 µM	> 3650 µM	87.10 µg/mL	133.33 ± 10.9 μg/mL trolox/gram DW	1974 ± 76.9 μg/mL trolox/gram DW	–	–	102 µg/mL (≈ 372 µM)	–
O=C(c1cccc(OC2O[C@H](CO)[C@@H](O)[C@H](O)[C@H]2O)c1)C(O)c1ccccc1 (stereo partly drawn) [Compound 15, 2-Hydroxy-1-(3-O-β -D-glucopyranosylphenyl)-2-phenylethanone]	–	–	–	–	–	–	–	–	25 µg/mL (≈ 64 µM)	30.7 µM	> 2560 µM	>1000 µg/mL	141.74 ±28.35 μg/mL trolox/gram DW	2311.04 ± 31.21 μg/mL trolox/gram DW	–	–	–	–
O=C(c1ccc(OC2O[C@H](CO)[C@@H](O)[C@H](O)[C@H]2O)cc1)C(O)c1ccccc1 (stereo partly drawn) [Compound 16, 2-Hydroxy-1-(4-O-β -D-glucopyranosylphenyl)-2-phenylethanone]	–	–	–	–	–	44.75 ± 3.04 mg/mL	–	–	–	399 µM	484 µM	>1000 µg/mL	73.54 ± 17.36 μg/mL trolox/gram DW	1956.25 ± 48.13 μg/mL trolox/gram DW	–	–	–	–
O=C(c1cc(OC2O[C@H](CO)[C@@H](O)[C@H](O)[C@H]2O)cc(OC2O[C@H](CO)[C@@H](O)[C@H](O)[C@H]2O)c1)C(O)c1ccccc1 (stereo partly drawn) [Compound 17, 2-Hydroxy-1-(3,5-Di-O-β -D-glucopyranosylphenyl)-2-phenylethanone]	–	–	–	–	–	8.22 ± 1.08 mg/mL	–	–	–	> 1760 µM	> 1760 µM	193.40 µg/mL	287.40 ± 9.81 μg/mL trolox/gram DW	2647.92 ± 31.92 μg/mL trolox/gram DW	–	–	–	–
O=C(c1ccc(OC2O[C@H](CO)[C@@H](O)[C@H](O)[C@H]2O)cc1)C(O)c1cccc(OC2O[C@H](CO)[C@@H](O)[C@H](O)[C@H]2O)c1 (stereo partly drawn) [Compound 19, 2-Hydroxy-1-(4-O-β -D-glucopyranosylphenyl)-2-(3-O-β -D-glucopyranosyl-phenyl)ethanone]	–	–	–	–	–	8.86 ± 0.37 mg/mL	–	–	–	18.5 µM	> 1760 µM	124.94 µg/mL	421.74 ± 24.39 μg/mL trolox/gram DW	2612.50 ± 37.04 μg/mL trolox/gram DW	–	–	–	–
O=C(c1cc(OC2O[C@H](CO)[C@@H](O)[C@H](O)[C@H]2O)cc(OC2O[C@H](CO)[C@@H](O)[C@H](O)[C@H]2O)c1)C(O)c1cccc(OC2O[C@H](CO)[C@@H](O)[C@H](O)[C@H]2O)c1 (stereo partly drawn) [Compound 20, 2-Hydroxy-1-(3,5-di-O-β -D-glucopyranosylphenyl)-2-(3-O-β -D-glucopyranosylphenyl)ethanone]	–	–	–	–	–	7.78 ± 0.12 mg/mL	–	–	–	> 1340 µM	254 µM	48.25 µg/mL	775.58±12.34 μg/mL trolox/gram DW	2918.75±36.14 μg/mL trolox/gram DW	–	–	–	–
O=C(C(=O)c1cc(OC2O[C@H](CO)[C@@H](O)[C@H](O)[C@H]2O)cc(OC2O[C@H](CO)[C@@H](O)[C@H](O)[C@H]2O)c1)c1ccccc1 (stereo partly drawn) [Compound 23, 1-(3,5-Di-O-β -D-glucopyranosylphenyl)-2-phenylethane-1,2-dione]	–	–	–	–	–	17.74 ± 0.35 mg/mL	–	–	–	124 µM	> 1770 µM	>1000 µg/mL	273.67 ± 27.23 μg/mL trolox/gram DW	2267.50 ± 24.14 μg/mL trolox/gram DW	–	–	–	–
O=C(C(=O)c1cccc(OC2O[C@H](CO)[C@@H](O)[C@H](O)[C@H]2O)c1)c1cccc(O)c1 (stereo partly drawn) [Compound 24, 1-(3-O-β -D-Glucopyranosylphenyl)-2-(3-hydroxyphenyl)ethane-1,2-dione]	–	–	–	–	–	25.40 ± 0.19 mg/mL	–	–	–	697 µM	526 µM	58.90 µg/mL	251.46 ± 43.08 μg/mL trolox/gram DW	2401.25 ± 56.34 μg/mL trolox/gram DW	–	–	–	15 µg/mL (≈ 37.1 µM)
OC(Cn1cncn1)(Cn1cncn1)c1ccc(F)cc1F [Flu., Fluconazole, reference compound]	–	–	–	–	–	–	–	–	< 8 µg/mL	–	–	–	–	–	–	–	–	–
[H]/N=C(/N)N[C@H]1[C@H](O)[C@@H](O)[C@H](O[C@@H]2O[C@@H](C)[C@](O)(C=O)[C@H]2O[C@@H]2O[C@@H](CO)[C@H](O)[C@@H](O)[C@@H]2NC)[C@@H](N/C(N)=N\[H])[C@@H]1O [Strep., Streptomycin, reference compound]	–	–	–	–	–	–	–	4 µg/mL (≈ 6.88 µM)	–	–	–	–	–	–	–	–	–	–
